# Measurements from patent US9120774B2 (University of Kansas, priority 2009, dated 2015).
# Read-outs that look alike come from different tables or passages of the source.
# How the values were obtained:
# Format in all cases: cell-based
# [1] = tested on: MCF-7 (estrogen receptor positive breast cancer cells); experiment: Anti-proliferation activity against MCF-7 cells (MTS/PMS); conditions: Homo sapiens, MCF7
# Method: (§1) Upon completion of synthesis of library of compounds in Examples 23 and 24, the compounds were evaluated for anti-proliferative activity against SkBr3 (Her2 overexpressing breast cancer cells), MCF-7 (estrogen receptor positive breast cancer cells), HCT-116 (colon cancer cells characterized by wild-type p53), PL45 (pancreatic cancer cells), LNCaP (androgen sensitive prostate cancer cells) and PC-3 (androgen independent prostate cancer cells) cell lines.
# (§2) Cells were maintained in a 1:1 mixture of Advanced DMEM/F12 (Gibco) supplemented with non-essential amino acids, L-glutamine (2 mM), streptomycin (500 ng/mL), penicillin (100 units/mL), and 10% FBS. Cells were grown to confluence in a humidified atmosphere (37° C., 5% CO2), seeded (2000/well, 100 μl) in 96-well plates, and allowed to attach overnight. Compound or GDA at varying concentrations in DMSO (1% DMSO final concentration) was added, and cells were returned to the incubator for 72 hours. At 72 hours, the number of viable cells was determined using an MTS/PMS cell proliferation kit (Promega) per the manufacturer's instructions. Cells incubated in 1% DMSO were used at 100% proliferation, and values were adjusted accordingly. IC50 values were calculated from separate experiments performed in triplicate using GraphPad Prism.
# as §2, with “μg/mL),” for “ng/mL),”, “μL)” for “μl)”
# [2] = tested on: LNCaP (androgen sensitive prostate cancer cells); experiment: Anti-proliferation activity against LNCaP cells; conditions: Homo sapiens, LNCaP
# Method: as §1, with “lines. […] The monosubstituted benzamide variants improved activity.” for “lines.”
# as §2
# [3] = tested on: PC-3 (androgen independent prostate cancer cells); experiment: Anti-proliferation activity against PC-3 cells; conditions: Homo sapiens, PC-3
# Method: as §1, with “lines. […] The monosubstituted benzamide variants improved activity.” for “lines.”
# as §2, with “[…] […]” for “Compound or GDA at varying concentrations in DMSO (1% DMSO final concentration) was added, and cells were returned to the incubator for 72 hours. At 72 hours, the number of viable cells was determined using an MTS/PMS cell proliferation kit (Promega) per the manufacturer's instructions.”
# [4] = tested on: SkBr3 (Her2 overexpressing breast cancer cells); experiment: Anti-proliferation activity against SkBr3 cells (MTS/PMS); conditions: Homo sapiens, SK-BR-3
# Method: as §1, §2
# as §2, with “μg/mL),” for “ng/mL),”, “μL)” for “μl)”
# [5] = tested on: HCT-116 (colon cancer cells characterized by wild-type p53); experiment: Anti-proliferation activity against HCT-116 cells; conditions: Homo sapiens
# Method: as §1, with “lines. […] The monosubstituted benzamide variants improved activity.” for “lines.”
# [6] = tested on: PL45 (pancreatic cancer cells); experiment: Anti-proliferation activity against PL45 cells
# Method: as §1, with “lines. […] The monosubstituted benzamide variants improved activity.” for “lines.”
# [7] = Table 7, 72 hours, MTS/PMS, mean ± standard deviation, read-out: Anti-proliferation activity MCF-7
# [8] = Table 7, 72 hours, MTS/PMS, mean ± standard deviation, read-out: Anti-proliferation activity LnCaP
# [9] = Table 7, 72 hours, MTS/PMS, mean ± standard deviation, read-out: Anti-proliferation activity PC-3
# [10] = Table 7, 72 hours, MTS/PMS, mean ± standard deviation, read-out: Anti-proliferation activity SkBr3
# [11] = Table 2, n = 3, read-out: IC50 MCF-7
# [12] = Table 2, n = 3, read-out: IC50 LNCaP
# [13] = Table 2, n = 3, read-out: IC50 PC-3
# [14] = Table 2, n = 3, read-out: IC50 SkBr3
# [15] = Table 5, heterocyclic analogues, n = 3, read-out: IC50 MCF-7
# [16] = Table 5, heterocyclic analogues, n = 3
# [17] = Table 5, heterocyclic analogues, n = 3, read-out: IC50 LNCaP
# [18] = Table 5, heterocyclic analogues, n = 3, read-out: IC50 PC-3
smiles,measurement,setting,value
"COc1ccc(CN(C(=O)c2ccc(OC)c(-c3cccc(OC)c3)c2)c2cnc3cc(O[C@@H]4OC(C)(C)[C@H](OC)[C@@H](O)[C@H]4O)ccc3c2)cc1 [42a, N-(4-Methoxybenzyl)-N-(7-((2R,3R,4S,5R)-3,4-dihydroxy-5-methoxy-6,6-dimethyl-tetrahydro-2H-pyran-2-yloxy)quinolin-3-yl)-4-methoxy-3-(3-methoxyphenyl)-benzamide]",IC50,[1]; [7],> 100 µM
same,IC50,[2]; [8],> 100 µM
same,IC50,[3]; [9],> 100 µM
same,IC50,[4]; [10],> 100 µM
"COc1cccc(-c2cc(C(=O)Nc3cnc4cc(O[C@@H]5OC(C)(C)[C@H](OC)[C@@H](O)[C@H]5O)ccc4c3)ccc2OC)c1 [42b, N-(7-((2R,3R,4S,5R)-3,4-Dihydroxy-5-methoxy-6,6-dimethyl-tetrahydro-2H-pyran-2-yloxy)quinolin-3-yl)-4-methoxy-3-(3-methoxyphenyl)-benzamide]",IC50,[1]; [7],13.1 ± 4.1 µM
same,IC50,[2]; [8],14.2 ± 0.4 µM
same,IC50,[3]; [9],17.6 ± 4.6 µM
same,IC50,[4]; [10],16.5 ± 6.2 µM
"COc1ccc(CN(C(=O)c2ccc(OC)c(-c3cccc(OC)c3)c2)c2ccc3cc(O[C@@H]4OC(C)(C)[C@H](OC)[C@@H](O)[C@H]4O)ccc3c2)cc1 [42c, N-(4-Methoxybenzyl)-N-(6-((2R,3R,4S,5R)-3,4-dihydroxy-5-methoxy-6,6-dimethyl-tetrahydro-2H-pyran-2-yloxy)naphthalen-2-yl)-4-methoxy-3-(3-methoxyphenyl)-benzamide]",IC50,[1]; [7],> 100 µM
same,IC50,[2]; [8],> 100 µM
same,IC50,[3]; [9],> 100 µM
same,IC50,[4]; [10],> 100 µM
"COc1cccc(-c2cc(C(=O)Nc3ccc4cc(O[C@@H]5OC(C)(C)[C@H](OC)[C@@H](O)[C@H]5O)ccc4c3)ccc2OC)c1 [42d, N-(6-((2R,3R,4S,5R)-3,4-Dihydroxy-5-methoxy-6,6-dimethyl-tetrahydro-2H-pyran-2-yloxy)naphthalen-2-yl)-4-methoxy-3-(3-methoxyphenyl)-benzamide]",IC50,[1]; [7],46.4 ± 5.3 µM
same,IC50,[2]; [8],19.6 ± 1.6 µM
same,IC50,[3]; [9],10.9 ± 0.7 µM
same,IC50,[4]; [10],38.9 ± 2.4 µM
"CO[C@@H]1[C@@H](O)[C@@H](O)[C@H](Oc2ccc3cc(NC(=O)c4ccccc4)c(=O)oc3c2C)OC1(C)C [compound 8, N-(7-((2R,3R,4S,5R)-3,4-Dihydroxy-5-methoxy-6,6-dimethyltetrahydro-2H-pyran-2-yloxy)-8-methyl-2-oxo-2H-chromen-3-yl)benzamide]",IC50,[1]; [11],20.6 ± 0.4 µM
same,IC50,"[5]; Table 2, n = 3",13 ± 2.1 µM
same,IC50,[2]; [12],72 ± 4 µM
same,IC50,[3]; [13],67.6 ± 9.7 µM
same,IC50,[4]; [14],21.5 ± 1.4 µM
same,IC50,"[6]; Table 2, n = 3",3.4 ± 0.6 µM
"COc1ccccc1C(=O)Nc1cc2ccc(O[C@@H]3OC(C)(C)[C@H](OC)[C@@H](O)[C@H]3O)c(C)c2oc1=O [compound 9, N-(7-((2R,3R,4S,5R)-3,4-Dihydroxy-5-methoxy-6,6-dimethyltetrahydro-2H-pyran-2-yloxy)-8-methyl-2-oxo-2H-chromen-3-yl)-2-methoxybenzamide]",IC50,[1]; [11],5.3 ± 1.3 µM
same,IC50,"[5]; Table 2, n = 3",> 100 µM
same,IC50,[3]; [13],9.1 ± 0.5 µM
same,IC50,[4]; [14],> 100 µM
same,IC50,"[6]; Table 2, n = 3",35.8 ± 3.4 µM
"COc1cccc(C(=O)Nc2cc3ccc(O[C@@H]4OC(C)(C)[C@H](OC)[C@@H](O)[C@H]4O)c(C)c3oc2=O)c1 [compound 10, N-(7-((2R,3R,4S,5R)-3,4-Dihydroxy-5-methoxy-6,6-dimethyltetrahydro-2H-pyran-2-yloxy)-8-methyl-2-oxo-2H-chromen-3-yl)-3-methoxybenzamide]",IC50,[1]; [11],5.6 ± 2.5 µM
same,IC50,"[5]; Table 2, n = 3",1.9 ± 0.6 µM
same,IC50,[2]; [12],21.7 ± 2 µM
same,IC50,[4]; [14],> 100 µM
same,IC50,"[6]; Table 2, n = 3",2.8 ± 0.8 µM
"COc1ccc(C(=O)Nc2cc3ccc(O[C@@H]4OC(C)(C)[C@H](OC)[C@@H](O)[C@H]4O)c(C)c3oc2=O)cc1 [compound 11, N-(7-((2R,3R,4S,5R)-3,4-Dihydroxy-5-methoxy-6,6-dimethyltetrahydro-2H-pyran-2-yloxy)-8-methyl-2-oxo-2H-chromen-3-yl)-4-methoxybenzamide]",IC50,[1]; [11],10.3 ± 0.9 µM
same,IC50,"[5]; Table 2, n = 3",15.9 ± 1.9 µM
same,IC50,[2]; [12],7.3 ± 0.9 µM
same,IC50,[3]; [13],17.1 ± 4.3 µM
same,IC50,[4]; [14],15.6 ± 4.2 µM
same,IC50,"[6]; Table 2, n = 3",5.9 ± 2.1 µM
"CO[C@@H]1[C@@H](O)[C@@H](O)[C@H](Oc2ccc3cc(NC(=O)c4ccccc4[N+](=O)[O-])c(=O)oc3c2C)OC1(C)C [compound 15, N-(7-((2R,3R,4S,5R)-3,4-Dihydroxy-5-methoxy-6,6-dimethyltetrahydro-2H-pyran-2-yloxy)-8-methyl-2-oxo-2H-chromen-3-yl)-2-nitrobenzamide]",IC50,[1]; [11],28.7 ± 4.8 µM
same,IC50,"[5]; Table 2, n = 3",44.3 ± 4.8 µM
same,IC50,[2]; [12],16.8 ± 0.8 µM
same,IC50,[4]; [14],21.8 ± 0.8 µM
same,IC50,"[6]; Table 2, n = 3",20.1 ± 4.7 µM
"CO[C@@H]1[C@@H](O)[C@@H](O)[C@H](Oc2ccc3cc(NC(=O)c4cccc([N+](=O)[O-])c4)c(=O)oc3c2C)OC1(C)C [compound 16, N-(7-((2R,3R,4S,5R)-3,4-Dihydroxy-5-methoxy-6,6-dimethyltetrahydro-2H-pyran-2-yloxy)-8-methyl-2-oxo-2H-chromen-3-yl)-3-nitrobenzamide]",IC50,[1]; [11],> 100 µM
same,IC50,"[5]; Table 2, n = 3",> 100 µM
same,IC50,[3]; [13],> 100 µM
same,IC50,[4]; [14],> 100 µM
same,IC50,"[6]; Table 2, n = 3",> 100 µM
"CO[C@@H]1[C@@H](O)[C@@H](O)[C@H](Oc2ccc3cc(NC(=O)OCc4ccccc4)c(=O)oc3c2C)OC1(C)C [compound 24, Benzyl 7-((2R,3R,4S,5R)-3,4-dihydroxy-5-methoxy-6,6-dimethyltetrahydro-2H-pyran-2-yloxy)-8-methyl-2-oxo-2H-chromen-3-ylcarbamate]",IC50,"[1]; Table 3, n = 3, read-out: IC50 MCF-7",12.1 ± 0.1 µM
same,IC50,"[5]; Table 3, n = 3",13 ± 0.2 µM
same,IC50,"[4]; Table 3, n = 3, read-out: IC50 SkBr3",17.8 ± 2.4 µM
same,IC50,"[6]; Table 3, n = 3",11.4 ± 0.6 µM
"CO[C@@H]1[C@@H](O)[C@@H](O)[C@H](Oc2ccc3cc(NC(=O)c4ccncc4)c(=O)oc3c2C)OC1(C)C [compound 42, N-(7-((2R,3R,4S,5R)-3,4-Dihydroxy-5-methoxy-6,6-dimethyltetrahydro-2H-pyran-2-yloxy)-8-methyl-2-oxo-2H-chromen-3-yl)isonicotinamide]",IC50,[1]; [15],> 100 µM
same,IC50,[5]; [16],> 100 µM
same,IC50,[2]; [17],34.8 ± 16 µM
same,IC50,"[4]; Table 5, heterocyclic analogues, n = 3, read-out: IC50 SkBr3",> 100 µM
same,IC50,[6]; [16],19.2 ± 2.5 µM
"CO[C@@H]1[C@@H](O)[C@@H](O)[C@H](Oc2ccc3cc(NC(=O)c4cc5ccccc5o4)c(=O)oc3c2C)OC1(C)C [compound 43, N-(7-((2R,3R,4S,5R)-3,4-Dihydroxy-5-methoxy-6,6-dimethyltetrahydro-2H-pyran-2-yloxy)-8-methyl-2-oxo-2H-chromen-3-yl)benzofuran-2-carboxamide]",IC50,[1]; [15],28.6 ± 4.1 µM
same,IC50,[5]; [16],9.6 ± 0.3 µM
same,IC50,[2]; [17],7.9 ± 1.1 µM
same,IC50,[3]; [18],18.8 ± 4.4 µM
same,IC50,[6]; [16],3.8 ± 0.4 µM
"CO[C@@H]1[C@@H](O)[C@@H](O)[C@H](Oc2ccc3cc(NC(=O)c4cc5ccccc5s4)c(=O)oc3c2C)OC1(C)C [compound 44, N-(7-((2R,3R,4S,5R)-3,4-Dihydroxy-5-methoxy-6,6-dimethyltetrahydro-2H-pyran-2-yloxy)-8-methyl-2-oxo-2H-chromen-3-yl)benzo[b]thiophene-2-carboxamide]",IC50,[1]; [15],96.3 ± 3.7 µM
same,IC50,[5]; [16],78.9 ± 3.5 µM
same,IC50,[2]; [17],> 100 µM
same,IC50,[3]; [18],7.4 ± 2.1 µM
same,IC50,[6]; [16],33.2 ± 0.7 µM
